In patent US10888567B2, “Inhibitors of tryptophan dioxygenases (IDO1 and TDO) and their use in therapy” (AUCKLAND UNISERVICES LIMITED, priority 2014, dated 2021):

Legend:
[1] = tested on: Lewis Lung carcinoma cells transfected to express IDO1 (LLTC-hIDO1); assay: MTT cell viability in the cellular IDO1 assay; format: cell-based; conditions: same experiment as cellular IDO1 assay
Protocol: The viability of the cells in each well in the same experiment was determined using the 3-(4,5-dimethylthiazolyl-2-yl)-2,5-diphenyltetrazolium bromide (MTT) colourimetric assay. After the removal of the supernatant for determination of IDO1 inhibition, the cells were incubated with MTT (500 μg/mL) until crystal formation was observed. […] DMSO (100 μL/well) was added to dissolve the crystals and then the absorbance in each well was measured at 570 nm. Cell viability in each well was expressed as a percentage of untreated controls. Triplicate cultures were used for all experiments unless stated otherwise.

[2] = biological target: Recombinant human IDO1 (rhIDO1) (Homo sapiens (Human), UniProt P14902); assay: Enzymatic assay for IDO1 activity; format: biochemical; conditions: rhIDO1 9 nM, 80 μM TRP, 37° C. 30 min
Sequence of Recombinant human IDO1 (rhIDO1) (P14902 whole entry): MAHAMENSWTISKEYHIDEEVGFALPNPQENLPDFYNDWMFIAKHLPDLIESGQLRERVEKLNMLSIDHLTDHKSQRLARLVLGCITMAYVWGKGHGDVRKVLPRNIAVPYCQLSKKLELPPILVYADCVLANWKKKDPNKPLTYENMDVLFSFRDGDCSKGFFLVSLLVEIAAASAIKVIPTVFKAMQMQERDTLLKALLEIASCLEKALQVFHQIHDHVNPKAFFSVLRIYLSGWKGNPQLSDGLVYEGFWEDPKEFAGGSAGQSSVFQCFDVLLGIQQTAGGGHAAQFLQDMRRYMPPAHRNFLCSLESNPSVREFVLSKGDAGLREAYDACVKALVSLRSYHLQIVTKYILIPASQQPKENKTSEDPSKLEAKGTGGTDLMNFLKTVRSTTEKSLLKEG
Protocol: Recombinant human IDO1 (rhIDO1) was expressed and purified from cultures of EC538 strain of E. coli transformed with pREP4 and pQE9-IDO plasmid. Reaction mixes were set up in 384-well microplates containing 50 mM phosphate buffer, 10 mM ascorbic, 10 μM methylene blue, 100 μg/mL catalase, 80 μM TRP, 0.01% Tween 20 (v/v) mixed with rhIDO1 (15 μL) at a final concentration of 9 nM in a total volume of 30 μL assay medium. The plates were incubated at 37° C. for 30 min, and the enzymatic reaction was terminated by adding piperidine (200 mM) and heated at 65° C. for 20 min. Fluorescence intensity was read at λex 400 nm and λem 500 nm. Test compounds were dissolved in 100% DMSO and pre-diluted in assay medium prior to adding rhIDO1. IDO1 inhibition (%) was calculated as
[formula] All experiments were carried out in triplicates, and statistical Analyses were conducted in Prism v5 (Graphpad Software, Inc., La Jolla, Calif., USA). Cell-Based Assay for IDO1 Inhibition

[3] = biological target: human IDO1 (LLTC-hIDO1 cells) (Homo sapiens, UniProt P14902); assay: Cell-based assay for IDO1 inhibition (kynurenine in supernatant); conditions: IDO1-transfected Lewis Lung carcinoma cells, 24 h; read-out: Cellular IC50
Protocol: Culture supernatant from each well was then transferred into a fresh, flat-bottomed 96-well plate, mixed with trichloroacetic acid (10% final concentration) and incubated for 20 min at 60° C. […] The absorbance of each well was read at 480 nm, and the concentration that inhibited 50% cellular enzyme activity was calculated.

| IC50 [1] | IC50 [2] | IC50 [3] | SMILES |
| --- | --- | --- | --- |
| > 100 µM | > 100 µM | > 100 µM | Nc1noc2nc(NC3CC3)c(F)cc12 [Compound 56, N6-Cyclopropyl-5-fluoroisoxazolo[5,4-b]pyridine-3,6-diamine] |
| – | > 100 µM | – | COc1cccc(Oc2ccc3c(N)noc3n2)c1 [Compound 91, 6-(3-Methoxyphenoxy)isoxazolo[5,4-b]pyridin-3-amine] |
| – | > 100 µM | – | Cc1ccc2c(N)noc2n1 [Compound 7, 6-Methylisoxazolo[5,4-b]pyridin-3-amine] |
| > 100 µM | > 100 µM | 10 to 100 µM | CCOC(=O)c1cc2c(N)noc2nc1C(F)F [Compound 54, Ethyl 3-amino-6-(difluoromethyl)isoxazolo[5,4-b]pyridine-5-carboxylate] |
| > 100 µM | > 100 µM | 10 to 100 µM | CSc1ncc2c(N)noc2n1 [Compound 63, 6-(Methylthio)isoxazolo[5,4-d]pyrimidin-3-amine] |
| > 100 µM | > 100 µM | > 100 µM | COc1ccc(Nc2ccc3c(N)noc3n2)cc1 [Compound 96, N^6-(4-Methoxyphenyl)isoxazolo[5,4-b]pyridine-3,6-diamine] |
| > 100 µM | 10 to 100 µM | < 1 µM | Nc1noc2ncc(Cl)cc12 [Compound 8, 5-Chloroisoxazolo[5,4-b]pyridin-3-amine] |
| > 100 µM | > 100 µM | 10 to 100 µM | COc1ccccc1Oc1ccc2c(N)noc2n1 [Compound 90, 6-(2-Methoxyphenoxy)isoxazolo[5,4-b]pyridin-3-amine] |
| > 100 µM | > 100 µM | 1 to 10 µM | Nc1noc2nc(-c3ccccc3)ccc12 [Compound 15, 6-Phenylisoxazolo[5,4-b]pyridin-3-amine] |
| > 100 µM | > 100 µM | > 100 µM | CN(C)CCCOc1ccc2c(N)noc2n1 [Compound 76, 6-(3-(Dimethylamino)propoxy)isoxazolo[5,4-b]pyridin-3-amine] |
| > 100 µM | > 100 µM | 10 to 100 µM | Cc1cc2c(N)noc2nc1C [Compound 45, 5,6-Dimethylisoxazolo[5,4-b]pyridin-3-amine] |
| – | > 100 µM | – | Nc1noc2ncc(F)cc12 [Compound 14, 5-Fluoroisoxazolo[5,4-b]pyridin-3-amine] |
| – | > 100 µM | – | COc1ccc(Oc2ccc3c(N)noc3n2)cc1 [Compound 92, 6-(4-Methoxyphenoxy)isoxazolo[5,4-b]pyridin-3-amine] |
| > 100 µM | > 100 µM | > 100 µM | Nc1noc2nccc(-c3ccccc3)c12 [Compound 13, 4-Phenylisoxazolo[5,4-b]pyridin-3-amine] |
| > 100 µM | > 100 µM | 10 to 100 µM | Cc1cnc2onc(N)c2c1 [Compound 44, 5-Methylisoxazolo[5,4-b]pyridin-3-amine] |
| > 100 µM | 1 to 10 µM | < 1 µM | Nc1noc2ncc(I)cc12 [Compound 16, 5-Iodoisoxazolo[5,4-b]pyridin-3-amine] |
| > 100 µM | > 100 µM | 10 to 100 µM | Cc1ncc2c(N)noc2n1 [Compound 64, 6-Methylisoxazolo[5,4-d]pyrimidin-3-amine] |
| > 100 µM | > 100 µM | > 100 µM | Nc1noc2nc3c(cc12)CCC3 [Compound 59, 6,7-Dihydro-5H-cyclopenta[b]isoxazolo[4,5-e]pyridin-3-amine] |
| > 100 µM | 1 to 10 µM | < 1 µM | Cc1nc2onc(N)c2c(C)c1Br [Compound 1, 5-Bromo-4,6-dimethylisoxazolo[5,4-b]pyridin-3-amine] |
| > 100 µM | 10 to 100 µM | 1 to 10 µM | Nc1noc2nc3ccccc3cc12 [Compound 9, Isoxazolo[5,4-b]quinolin-3-amine] |
| > 100 µM | > 100 µM | 1 to 10 µM | COc1cccc(Nc2ccc3c(N)noc3n2)c1 [Compound 95, N^6-(3-Methoxyphenyl)isoxazolo[5,4-b]pyridine-3,6-diamine] |
| – | > 100 µM | – | Nc1noc2ccncc12 [Compound 17, Isoxazolo[4,5-c]pyridin-3-amine] |
| > 100 µM | > 100 µM | 10 to 100 µM | CC(C)c1ccc2c(N)noc2n1 [Compound 48, 6-Isopropylisoxazolo[5,4-b]pyridin-3-amine] |

| IC50 [1] | IC50 [2] | IC50 [3] | SMILES |
| --- | --- | --- | --- |
| – | > 100 µM | – | CN(C)c1ccc2c(N)noc2n1 [Compound 18, N^6,N^6-Dimethylisoxazolo[5,4-b]pyridine-3,6-diamine] |
| > 100 µM | > 100 µM | 10 to 100 µM | Nc1noc2nc(Oc3cccc(C(F)(F)F)c3)ccc12 [Compound 93, 6-(3-(Trifluoromethyl)phenoxy)isoxazolo[5,4-b]pyridin-3-amine] |
| > 100 µM | > 100 µM | 10 to 100 µM | CS(=O)(=O)c1ccc2c(N)noc2n1 [Compound 80, 6-(methylsulfonyl)isoxazolo[5,4-b]pyridin-3-amine] |
| – | > 100 µM | – | Nc1noc2nc(N3CCOCC3)c(F)cc12 [Compound 55, 5-Fluoro-6-morpholinoisoxazolo[5,4-b]pyridin-3-amine] |
| > 100 µM | 10 to 100 µM | 1 to 10 µM | CSc1ccc2c(N)noc2n1 [Compound 79, 6-(Methylthio)isoxazolo[5,4-b]pyridin-3-amine] |
| > 100 µM | 10 to 100 µM | < 1 µM | Nc1noc2ncc(Br)cc12 [Compound 6, 5-Bromoisoxazolo[5,4-b]pyridin-3-amine] |
| > 100 µM | > 100 µM | > 100 µM | CN(C)CCOc1ccc2c(N)noc2n1 [Compound 77, 6-(2-(Dimethylamino)ethoxy)isoxazolo[5,4-b]pyridin-3-amine] |
| > 100 µM | > 100 µM | 1 to 10 µM | Nc1noc2nc(-c3ccco3)ccc12 [Compound 58, 6-(Furan-2-yl)isoxazolo[5,4-b]pyridin-3-amine] |
| > 100 µM | > 100 µM | 10 to 100 µM | Nc1noc2nc(Oc3ccccc3OC(F)(F)F)ccc12 [Compound 87, 6-(2-(Trifluoromethoxy)phenoxy)isoxazolo[5,4-b]pyridin-3-amine] |
| – | 10 to 100 µM | – | Cc1nc2onc(N)c2c(C)c1C [Compound 5, 4,5,6-Trimethylisoxazolo[5,4-b]pyridin-3-amine] |
| – | > 100 µM | – | Nc1noc2ncc(-c3ccc(F)cc3)cc12 [Compound 30, 5-(4-Fluorophenyl)isoxazolo[5,4-b]pyridin-3-amine] |
| – | > 100 µM | – | Nc1noc2nc3c(cc12)CCCCC3 [Compound 60, 6,7,8,9-Tetrahydro-5H-cyclohepta[b]isoxazolo[4,5-e]pyridin-3-amine] |
| – | > 100 µM | – | COc1ccnc2onc(N)c12 [Compound 51, 4-Methoxyisoxazolo[5,4-b]pyridin-3-amine] |
| – | > 100 µM | – | CCOC(=O)c1cc2c(N)noc2nc1C [Compound 53, Ethyl 3-amino-6-methylisoxazolo[5,4-b]pyridine-5-carboxylate] |
| – | > 100 µM | – | Nc1noc2nc3c(cc12)COCC3 [Compound 62, 7,8-Dihydro-5H-isoxazolo[5,4-b]pyrano[3,4-e]pyridin-3-amine] |
| – | > 100 µM | – | CC1(C)CCc2nc3onc(N)c3cc2C1 [Compound 61, 6,6-Dimethyl-5,6,7,8-tetrahydroisoxazolo[5,4-b]quinolin-3-amine] |
| – | > 100 µM | – | CN(C)c1ccnc2onc(N)c12 [Compound 19, N^4,N^4-Dimethylisoxazolo[5,4-b]pyridine-3,4-diamine] |
| – | > 100 µM | – | Nc1noc2nc(Oc3cccc(Cl)c3)ccc12 [Compound 85, 6-(3-Chlorophenoxy)isoxazolo[5,4-b]pyridin-3-amine] |
| – | > 100 µM | – | Nc1noc2ncc(-c3ccccc3O)cc12 [Compound 28, 2-(3-Aminoisoxazolo[5,4-b]pyridin-5-yl)phenol] |
| – | > 100 µM | – | Nc1noc2nc(Oc3ccc(Cl)cc3)ccc12 [Compound 86, 6-(4-Chlorophenoxy)isoxazolo[5,4-b]pyridin-3-amine] |
| – | > 100 µM | – | Nc1noc2nc(Oc3ccccc3)ccc12 [Compound 83, 6-Phenoxyisoxazolo[5,4-b]pyridin-3-amine] |
| – | > 100 µM | – | Nc1ccc2c(N)noc2n1 [Compound 43, Isoxazolo[5,4-b]pyridine-3,6-diamine] |

| SMILES | IC50 [1] | IC50 [2] | IC50 [3] |
| --- | --- | --- | --- |
| COc1ccc(-c2ccc3c(N)noc3n2)cc1 [Compound 70, 6-(4-Methoxyphenyl)isoxazolo[5,4-b]pyridin-3-amine] | > 100 µM | > 100 µM | > 100 µM |
